Source: PMC6787355, “Purification, kinetic characterization, and site-directed mutagenesis of Methanothermobacter thermautotrophicus RFAP Synthase Produced in Escherichia coli” (AIMS Microbiology, 2019)
Positions count from the first letter of the chain named. Names may count otherwise. “And” between values parts separate entries of the source, which are not always exact repeats. Equal entries are not always repeated. Where two headings read alike, the source gives them in different places.

Assays:
[1] = target: Methanothermobacter thermautotrophicus β-ribofuranosylaminobenzene 5′-phosphate (RFAP) synthase, wild type, recombinant (Methanothermobacter thermautotrophicus); assay: SEC; Superdex 75 gel filtration column in 50 mM TES, 150 mM KCl, 2 mM DTT, ambient temperature; enzyme eluted after 19 min, corresponding to 68.7 kDa; subunit size from SDS-PAGE
[2] = target: T1, MTH0830 RFAP synthase R26K variant (Methanothermobacter thermautotrophicus, UniProt O26918, R26K); assay: Isothermal titration calorimetry, R26K variant; format: binding
T1 sequence (O26918 1-329 R26K): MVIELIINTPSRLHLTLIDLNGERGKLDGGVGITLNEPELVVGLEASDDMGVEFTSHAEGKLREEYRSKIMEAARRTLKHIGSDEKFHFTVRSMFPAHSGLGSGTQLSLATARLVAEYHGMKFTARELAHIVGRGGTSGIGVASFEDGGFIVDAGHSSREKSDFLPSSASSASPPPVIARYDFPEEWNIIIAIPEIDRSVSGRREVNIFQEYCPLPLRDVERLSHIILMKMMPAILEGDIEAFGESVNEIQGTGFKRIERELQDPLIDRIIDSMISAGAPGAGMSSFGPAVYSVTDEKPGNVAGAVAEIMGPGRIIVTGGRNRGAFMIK
Method: (§1) The ITC conditions previously established for M. jannaschii RFAP synthase were modified for the RFAP synthase from M. thermautotrophicus. Partially purified wild-type (heat-treated at 65 °C) and variant (heat-treated at 50 °C) RFAP synthases (2–5 mL) were dialyzed against two changes of buffer (250 mL each of 50 mM Tris, 100 mM NaCl, pH 7.6). […] All ITC measurements were carried out using a NANO-ITC isothermal titration calorimeter (TA Instruments, New Castle, DE).
(§2) Following an 1800 s delay, 10 injections of 5 µL of PRPP each were added every 240 seconds with stirring at 300 rpm.

[3] = target: RFAP synthase from M. jannaschii; set-up: method as in PMID 15262968; conditions: read-out: binding constant (KD) for PRPP; cited from earlier work
[4] = target: wild-type MTH0830 RFAP synthase (Methanothermobacter thermautotrophicus, UniProt O26918); assay: Isothermal titration calorimetry, wild-type enzyme; format: binding; conditions: ITC, 35 °C
Chain of wild-type MTH0830 RFAP synthase (O26918 whole entry): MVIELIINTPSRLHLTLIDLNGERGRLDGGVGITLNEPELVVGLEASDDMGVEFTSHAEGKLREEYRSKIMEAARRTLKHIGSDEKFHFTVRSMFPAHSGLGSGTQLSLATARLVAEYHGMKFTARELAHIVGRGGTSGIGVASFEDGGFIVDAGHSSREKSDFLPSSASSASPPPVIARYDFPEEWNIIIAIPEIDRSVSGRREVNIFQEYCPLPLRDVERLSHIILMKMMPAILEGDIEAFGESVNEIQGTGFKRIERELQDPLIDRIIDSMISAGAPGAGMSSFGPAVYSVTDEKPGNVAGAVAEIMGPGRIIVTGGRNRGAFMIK
Method: as §1, §2

[5] = target: T2, MTH0830 RFAP synthase D19N variant (Methanothermobacter thermautotrophicus, UniProt O26918, D19N); assay: Isothermal titration calorimetry, D19N variant; format: binding
T2 sequence (O26918 1-329 D19N): T1 sequence (O26918 1-329 R26K) with D19N, K26R
Method: as §1, §2

[6] = system: RFAP synthase from M. jannaschii; set-up: method as in PMID 9698382, PMID 15262968; conditions: read-out: apparent KM for pABA; cited from earlier work
[7] = system: RFAP synthase from M. thermophila; conditions: read-out: apparent KM for pABA; cited from earlier work
[8] = two acidic pKa values; cited from earlier work
[9] = target: T3, wild-type M. thermautotrophicus RFAP synthase (MTH0830) produced in E. coli (Methanothermobacter thermautotrophicus, UniProt O26918); assay: RFAP synthase enzyme assay (azo-dye derivative of RFAP), wild-type recombinant enzyme; format: biochemical; conditions: for Vmax / Km: 8.8 mM PRPP; for Km: read-out: KM for pABA
T3 sequence (O26918 1-329): T1 sequence (O26918 1-329 R26K) with K26R
Method: RFAP synthase activity was determined by producing the azo-dye derivative of the product RFAP as described previously [1],[17]. […] From this point on, the amount of enzyme used in activity assays was within the linear range of 8 to 12 µg. […] All assays were carried out under optimal enzymatic conditions in 70 mM PIPES (pH 6.8), 2 mM DTT at 70 °C for 1 h.

[10] = substrate: Nc1ccc(C(=O)O)cc1; assay: purified protein, by the assay type
[11] = substrate: Nc1ccc(C(=O)O)cc1; assay: RFAP synthase enzyme assay, R26K variant; format: biochemical, Methanothermobacter thermautotrophicus; conditions: other: 50 °C, 3 h, pH 6.8, 8.8 mM PRPP
Method: RFAP synthase activity was determined by producing the azo-dye derivative of the product RFAP as described previously,[17]. […] From this point on, the amount of enzyme used in activity assays was within the linear range of 8 to 12 µg. […] All assays were carried out under optimal enzymatic conditions in 70 mM PIPES (pH 6.8), 2 mM DTT at 70 °C for 1 h.
Due to the inability of the variants to function at 70 °C, the enzymatic assays comparing variant and wild-type kinetics were run in 70 mM PIPES (pH 6.8) with 2 mM DTT at 50 °C for three hours using a single time-point assay. This is the time period over which the enzyme activities were linear at the lower temperature of 50 °C. For these kinetic studies, the wild-type enzyme was purified in the same manner as the variants and was also examined at 50 °C for three hours.

## Methanothermobacter thermautotrophicus β-ribofuranosylaminobenzene 5′-phosphate (RFAP) synthase, wild type, recombinant (enzyme)
[1]
  stoichiometry N: 2

## O=P(O)(O)OC[C@H]1OC(OP(=O)(O)OP(=O)(O)O)[C@H](O)[C@@H]1O (some centres unmarked) [PRPP, phosphoribosyl-pyrophosphate]
[2]
  Kd: 2.4 ± 0.25 mM
[3]
  Kd: 2 mM
[4]; read-out: KD for PRPP
  Kd: 2.1 ± 0.11 mM
[5]
  Kd: 2 ± 0.3 mM

## Nc1ccc(C(=O)O)cc1 [pABA, p-aminobenzoic acid]
[6]
  Km: 150 µM
[7]
  Km: 58 µM
[4]; in presence of saturating PRPP
  Kd: 0.96 ± 0.65 mM
[8]
  acidic pKa: 4.65 and 4.80
[9]; 50 °C, 3 h, pABA varied, partially purified
  Vmax: 1.45 nmol/min/mg and 1.5 nmol/min/mg
[9]; 70 °C, pABA varied 181 µM to 36 mM
  Vmax: approximately 190 nmol/min/mg protein
[9]; near neutral conditions versus homologs with pH optimum at 5.3
  fold higher KM compared to previous homologs: 26 fold
[9]; 50 °C, 3 h, pH 6.8, partially purified without heat step
  Km: 3.9 mM
[9]; 70 °C, pH 6.8, 1 h, 17.6 mM MgCl2, enzyme purified through Mono Q
  Km: 4.5 mM

B1: wild-type M. thermautotrophicus RFAP synthase (MTH0830) produced in E. coli (Methanothermobacter thermautotrophicus str. Delta H) (protein)
chain: T1 sequence (O26918 1-329 R26K) with K26R
[10]; other: 50 °C, 3 h, pH 6.8, 8.8 mM PRPP, partially purified without heat step, 50.0 °C
  Km: 3.9 mM
[10]; other: 70 °C, pH 6.8, 1 h, 8.8 mM PRPP, 17.6 mM MgCl2, enzyme purified through Mono Q, 70.0 °C
  Km: 4.5 mM
[10]; other: enzymatic assays, summary of Figure 3 and Table 2, pH 6.8
  Km: 4 mM

B2: MTH0830 RFAP synthase D19N variant (Methanothermobacter thermautotrophicus str. Delta H; D19N) (protein)
chain: T1 sequence (O26918 1-329 R26K) with D19N, K26R
[10]; other: 50 °C, 3 h, pH 6.8, 8.8 mM PRPP
  Km: 12 mM

B3: MTH0830 RFAP synthase R26K variant (Methanothermobacter thermautotrophicus str. Delta H; R26K) (protein)
chain: T1 sequence (O26918 1-329 R26K)
[11]
  Km: 38 mM
  Vmax: 0.005 µmol/min/mg
